Legend:
[1] = molecular target: T1, rat histamine H3 receptor (Rattus norvegicus, UniProt Q9QYN8); assay: Rat H3 radioligand binding ([3H]-N-alpha-methylhistamine, SPA); conditions: rat H3 binding, Table D; read-out: Rat H3 Ki
T1 construct: encoding the entire 445-amino-acid rat histamine H3 receptor; expressed in transfected cells; membrane preparation
Outline: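 Membranes from CHO-A3 cells stably expressing full-length rat H3 receptor (10 μg protein/well) incubated 4 h at room temperature, protected from light, with ~1 nM [3H]-N-alpha-methylhistamine and compound (0.01 nM-30 μM) in 50 mM Tris HCl pH 7.4, 5 mM MgCl2, 0.1% BSA. Binding read by SPA; 10 μM clobenpropit defined non-specific binding.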

human H3 receptor = molecular target: T2, human H3 receptor (Homo sapiens, UniProt Q9Y5N1); assay: Human H3 radioligand binding ([3H]-N-alpha-methylhistamine, SPA); conditions: human H3 binding, Table D; read-out: Human H3 Ki
T2 construct: expressed in transfected cells
Outline: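 SPA competition binding on membranes from CHO cells stably expressing human H3 receptor (10 μg protein/well) with ~1 nM [3H]-N-alpha-methylhistamine and compound at 0.01 nM-30 μM. Incubation 4 h at room temperature in 50 mM Tris-HCl pH 7.4, 5 mM MgCl2, 0.1% BSA; non-specific binding defined with 10 μM clobenpropit.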

T1 sequence (Q9QYN8 whole entry): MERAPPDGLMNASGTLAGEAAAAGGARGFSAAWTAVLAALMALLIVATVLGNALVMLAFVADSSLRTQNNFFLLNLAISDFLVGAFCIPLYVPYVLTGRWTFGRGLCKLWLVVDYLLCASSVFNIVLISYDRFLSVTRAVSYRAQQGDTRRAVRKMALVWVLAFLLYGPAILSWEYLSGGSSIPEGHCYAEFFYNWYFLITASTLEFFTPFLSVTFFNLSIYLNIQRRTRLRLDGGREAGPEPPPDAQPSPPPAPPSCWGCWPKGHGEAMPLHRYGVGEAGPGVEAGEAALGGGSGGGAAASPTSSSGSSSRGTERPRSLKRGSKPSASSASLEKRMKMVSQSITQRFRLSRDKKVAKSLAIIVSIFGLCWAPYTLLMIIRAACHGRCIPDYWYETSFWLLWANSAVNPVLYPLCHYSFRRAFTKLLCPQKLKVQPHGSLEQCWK
T2 sequence (Q9Y5N1 whole entry): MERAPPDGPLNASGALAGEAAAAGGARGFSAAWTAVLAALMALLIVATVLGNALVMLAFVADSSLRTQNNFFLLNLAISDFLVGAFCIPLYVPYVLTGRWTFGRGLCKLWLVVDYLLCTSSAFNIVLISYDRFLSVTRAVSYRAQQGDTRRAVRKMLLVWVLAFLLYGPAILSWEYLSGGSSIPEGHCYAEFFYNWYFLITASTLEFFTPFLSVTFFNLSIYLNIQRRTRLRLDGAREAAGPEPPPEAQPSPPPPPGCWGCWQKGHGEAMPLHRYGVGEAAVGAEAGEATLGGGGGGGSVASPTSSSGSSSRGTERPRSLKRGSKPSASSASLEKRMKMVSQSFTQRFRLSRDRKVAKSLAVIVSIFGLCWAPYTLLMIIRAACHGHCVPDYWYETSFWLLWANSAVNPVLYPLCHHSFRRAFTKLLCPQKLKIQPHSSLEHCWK

| Ki [1] | melting point | Ki (human H3 receptor) | Structure (SMILES) |
| --- | --- | --- | --- |
| < 200 nM | 148 to 149 °C | < 200 nM | CS(=O)(=O)c1cncc(-c2ccc3c(c2)COC2(CCN(C4CCC4)CC2)O3)c1 [Example 655] |
| < 200 nM | 142.6 to 145.1 °C | < 200 nM | CC(C)S(=O)(=O)C1CCN(c2ccc3c(c2)COC2(CCN(C4CCC4)CC2)O3)CC1 [Example 656] |
| < 200 nM | 75.5 to 77.8 °C | < 200 nM | Cc1nnc(C2CCN(c3ccc4c(c3)COC3(CCN(C5CCC5)CC3)O4)CC2)o1 [Example 657] |
| < 200 nM | 221.5 to 223.7 °C | < 200 nM | O=c1[nH]cc(-c2ccc3c(c2)COC2(CCN(C4CCC4)CC2)O3)cc1Cl [Example 658] |
| < 200 nM | 170 to 173 °C | < 200 nM | Cn1cc(-c2ccc3c(c2)COC2(CCN(C4CCC4)CC2)O3)ccc1=O [Example 659] |
| < 200 nM | 71 to 73 °C | < 200 nM | O=C(CCc1ccc2c(c1)COC1(CCN(C3CCC3)CC1)O2)N1CCOCC1 [Example 660] |
| < 200 nM | 150 to 152 °C | < 200 nM | CCS(=O)(=O)c1ccc(-c2ccc3c(c2)COC2(CCN(C4CCC4)CC2)O3)s1 [Example 661] |
| < 200 nM | 250 °C (dec.) | < 200 nM | COc1ncc(-c2ccc3c(c2)COC2(CCN(C4CCC4)CC2)O3)c(OC)n1 [Example 662] |
| < 200 nM | 205 to 206 °C | < 200 nM | O=c1cc(COc2ccc3c(c2)CCC2(CCN(C4CCC4)CC2)O3)cc[nH]1 [Example 663] |
| < 200 nM | 70 to 72 °C | < 200 nM | OC(c1ccc2c(c1)COC1(CCN(C3CCC3)CC1)O2)c1nccs1 (stereo not drawn) [Example 664] |
| < 200 nM | 135.9 to 137.2 °C | < 200 nM | Cc1cc(C2CCN(c3ccc4c(c3)COC3(CCN(C5CCC5)CC3)O4)CC2)on1 [Example 665] |
| < 200 nM | 230 to 232 °C | < 200 nM | O=c1[nH]ccc(-c2ccc3c(c2)COC2(CCN(C4CCC4)CC2)O3)c1Cl [Example 666] |
| < 200 nM | 130 to 132 °C | < 200 nM | O=c1cc(-c2ccc3c(c2)COC2(CCN(C4CCC4)CC2)O3)c(Cl)c[nH]1 [Example 667] |
| < 200 nM | 236 to 237 °C | < 200 nM | O=C(O)c1ccc(-c2ccc3c(c2)COC2(CCN(C4CCC4)CC2)O3)cc1 [Example 668] |
| < 200 nM | 72 to 75 °C | < 200 nM | OC(c1ccc2c(c1)COC1(CCN(C3CCC3)CC1)O2)c1cncs1 (stereo not drawn) [Example 669] |
| < 200 nM | 167 to 170 °C | < 200 nM | CN(C)C(=O)c1cccc(COc2ccc3c(c2)CCC2(CCN(C4CCC4)CC2)O3)n1 [Example 670] |
| < 200 nM | 158 to 159 °C | < 200 nM | c1cc2c(cc1OCc1nnc(C3CC3)o1)CCC1(CCN(C3CCC3)CC1)O2 [Example 671] |
| < 200 nM | 178 to 179 °C | < 200 nM | COCc1noc(COc2ccc3c(c2)CCC2(CCN(C4CCC4)CC2)O3)n1 [Example 672] |
| < 200 nM | 87 to 89 °C | < 200 nM | Cc1nnc(CCc2ccc3c(c2)COC2(CCN(C4CCC4)CC2)O3)o1 [Example 673] |
| < 200 nM | 75 to 78 °C | < 200 nM | CN(C)C(=O)c1ccc(COc2ccc3c(c2)CCC2(CCN(C4CCC4)CC2)O3)nc1 [Example 674] |
| < 200 nM | 83 to 85 °C | < 200 nM | c1nnc(CCc2ccc3c(c2)COC2(CCN(C4CCC4)CC2)O3)o1 [Example 675] |
| < 200 nM | 74 to 76 °C | < 200 nM | Cc1noc(CCc2ccc3c(c2)COC2(CCN(C4CCC4)CC2)O3)n1 [Example 676] |
| < 200 nM | 223.5 to 225.8 °C | < 200 nM | C/C=C(\CC)c1ccc2c(c1)COC1(CCN(C3CCC3)CC1)O2 [Example 677] |
| < 200 nM | 170 to 172 °C | < 200 nM | CCc1nnc(COc2ccc3c(c2)CCC2(CCN(C4CCC4)CC2)O3)o1 [Example 678] |
| < 200 nM | 250 °C (dec.) | < 200 nM | NC(=O)c1ccc(-c2ccc3c(c2)COC2(CCN(C4CCC4)CC2)O3)s1 [Example 679] |
| < 200 nM | 230 to 231 °C | < 200 nM | Cn1cc(-c2ccc3c(c2)COC2(CCN(C4CCC4)CC2)O3)cnc1=O [Example 680] |

| Ki [1] | melting point | Ki (human H3 receptor) | Structure (SMILES) |
| --- | --- | --- | --- |
| < 200 nM | 210 to 211 °C | < 200 nM | CNC(=O)c1ccc(-c2ccc3c(c2)COC2(CCN(C4CCC4)CC2)O3)c(C)c1 [Example 681] |
| < 200 nM | 87 to 90 °C | < 200 nM | CNC(=O)c1ccc(-c2ccc3c(c2)COC2(CCN(C4CCC4)CC2)O3)c(OC)c1 [Example 682] |
| < 200 nM | 69 to 72 °C | < 200 nM | OC(c1ccncc1)c1ccc2c(c1)COC1(CCN(C3CCC3)CC1)O2 (stereo not drawn) [Example 683] |
| < 200 nM | 211 to 213 °C | < 200 nM | CNC(=O)c1ccc(-c2ccc3c(c2)COC2(CCN(C4CCC4)CC2)O3)c(Cl)c1 [Example 685] |
| < 200 nM | 170 to 173 °C | < 200 nM | O=C(NC1CCOCC1)c1ccc(-c2ccc3c(c2)COC2(CCN(C4CCC4)CC2)O3)c(Cl)c1 [Example 686] |
| < 200 nM | 184 to 185 °C | < 200 nM | Cc1cc(C(=O)NC2CCOCC2)ccc1-c1ccc2c(c1)COC1(CCN(C3CCC3)CC1)O2 [Example 687] |
| < 200 nM | 100 to 102 °C | < 200 nM | COc1cc(C(=O)NC2CCOCC2)ccc1-c1ccc2c(c1)COC1(CCN(C3CCC3)CC1)O2 [Example 688] |
| < 200 nM | 76.4 to 78.4 °C | < 200 nM | Cc1nnc(C2CC=C(c3ccc4c(c3)COC3(CCN(C5CCC5)CC3)O4)CC2)o1 (stereo not drawn) [Example 689] |
| < 200 nM | 61 to 63 °C | < 200 nM | CC1CN=C(CCc2ccc3c(c2)COC2(CCN(C4CCC4)CC2)O3)O1 (stereo not drawn) [Example 691] |
| < 200 nM | 57 to 60 °C | < 200 nM | OC(c1cncnc1)c1ccc2c(c1)COC1(CCN(C3CCC3)CC1)O2 (stereo not drawn) [Example 692] |
| < 200 nM | 180 to 182 °C | < 200 nM | Cc1cc(C(N)=O)ccc1-c1ccc2c(c1)COC1(CCN(C3CCC3)CC1)O2 [Example 693] |
| < 200 nM | 98 to 100 °C | < 200 nM | CCc1nnc(CCc2ccc3c(c2)COC2(CCN(C4CCC4)CC2)O3)o1 [Example 694] |
| < 200 nM | 101 to 103 °C | < 200 nM | CC(C)c1nnc(CCc2ccc3c(c2)COC2(CCN(C4CCC4)CC2)O3)o1 [Example 695] |
| < 200 nM | 63 to 68 °C | < 200 nM | OC(c1ccc2c(c1)COC1(CCN(C3CCC3)CC1)O2)c1cscn1 (stereo not drawn) [Example 697] |
| < 200 nM | 282 to 284 °C | < 200 nM | COc1cc(C(=O)O)ccc1-c1ccc2c(c1)COC1(CCN(C3CCC3)CC1)O2 [Example 699] |
| < 200 nM | 121 to 125 °C | < 200 nM | NC(=O)COc1ccc2c(c1)CCC1(CCN(C3CCC3)CC1)O2 [Example 700] |
| < 200 nM | 179 to 180 °C | < 200 nM | c1c[nH]c(-c2ccc3c(c2)COC2(CCN(C4CCC4)CC2)O3)c1 [Example 702] |
| > 1000 nM | 214 to 216 °C | 200 to 1000 nM | O=c1ccc(-c2ccc3c(c2)COC2(CCN(CCC4CCOCC4)CC2)O3)c[nH]1 [Example 703] |
| < 200 nM | 252 to 254 °C | < 200 nM | CNC(=O)c1ccc(-c2ccc3c(c2)COC2(CCN(C4CCC4)CC2)O3)cc1O [Example 704] |
| < 200 nM | 193 to 195 °C | < 200 nM | O=C(NC1CCOCC1)c1ccc(-c2ccc3c(c2)COC2(CCN(C4CCC4)CC2)O3)cc1O [Example 705] |
| < 200 nM | 62.4 to 64.7 °C | < 200 nM | Cc1nnc(C2CCC(c3ccc4c(c3)COC3(CCN(C5CCC5)CC3)O4)CC2)o1 (stereo not drawn) [Example 707] |
| < 200 nM | 141 to 142 °C | < 200 nM | COCCn1cc(-c2ccc3c(c2)COC2(CCN(C4CCC4)CC2)O3)ccc1=O [Example 708] |
| < 200 nM | 151 to 154 °C | < 200 nM | Cc1cc(=O)n(C)cc1-c1ccc2c(c1)COC1(CCN(C3CCC3)CC1)O2 [Example 709] |
| < 200 nM | 158 to 160 °C | < 200 nM | O=c1ccc(-c2ccc3c(c2)COC2(CCN(C4CCC4)CC2)O3)cn1CC(F)(F)F [Example 710] |
| > 1000 nM | 143 to 145 °C | > 1000 nM | COc1ccc(-c2ccc3c(c2)COC2(CCN(CCC4CCOCC4)CC2)O3)cn1 [Example 711] |

From patent publication US8513232B2, “Substituted spirocyclic piperidine derivatives as histamine-3 (H3) receptor ligands” (Cephalon, Inc., priority 2008, dated 2013)
